Data published in patent publication EP0745599A2, “1-(3-Heterocyclylphenyl)-s-triazine-2,4,6-oxo or thiotrione herbicidal agents” (American Cyanamid Company, priority 1995, dated 1996).

Legend:
Assay type in all cases: in vivo
Conditions in all cases: rated four to five weeks after treatment
[1] = system: ORYZA SATIVA, L. TEBONNET; experiment: Preemergence herbicidal evaluation, ORYSAT (Rice, Tebonnet); design: key to ORYSAT: visual rating scale 0-9 vs control
Text: (§1) Results of herbicide evaluation are expressed on a rating scale (0-9). The scale is based upon a visual observation of plant stand, vigor, malformation, size, chlorosis and overall plant appearance as compared with a control.
(§2) The preemergence herbicidal activity of the test compounds of the present invention is exemplified by the following tests in which the seeds of a variety of monocotyledonous and dicotyledonous plants are separately mixed with potting soil and planted on top of approximately one inch of soil in separate pint cups. After planting, the cups are sprayed with the selected aqueous acetone solution containing test compound in sufficient quantity to provide the equivalent of about 0.125 to 0.50 kg per hectare of test compound per cup. The treated cups are then placed on greenhouse benches, watered and cared for in accordance with conventional greenhouse procedures. From four to five weeks after treatment, the tests are terminated and each cup is examined and rated according to the rating system provided in Example 42.

IPOMOEA SPP. = experiment: Preemergence herbicidal evaluation, IPOSS (Morningglory Spp.); design: key to IPOSS: visual rating scale 0-9 vs control
Text: as §1, §2

[2] = system: ECHINOCHLOA CRUS-GALLI, (L) BEAU; experiment: Preemergence herbicidal evaluation, ECHCG (Barnyardgrass); design: key to ECHCG: visual rating scale 0-9 vs control
Text: as §1, §2

[3] = system: TRITICUM AESTIVUM, CV. APOLLO; experiment: Preemergence herbicidal evaluation, TRZAWO (Wheat, Winter, CV. APOLLO); design: key to TRZAWO: visual rating scale 0-9 vs control
Text: as §1, §2

[4] = system: AMBROSIA ARTEMISIIFOLIA, L.; experiment: Preemergence herbicidal evaluation, AMBEL (Ragweed, Common); design: key to AMBEL: visual rating scale 0-9 vs control
Text: as §1, §2

ZEA MAYS L. = experiment: Preemergence herbicidal evaluation, ZEAMX (Corn, Field); design: key to ZEAMX: visual rating scale 0-9 vs control
Text: as §1, §2

CASSIA OBTUSIFOLIA, L. = experiment: Preemergence herbicidal evaluation, CASOB (Sicklepod); design: key to CASOB: visual rating scale 0-9 vs control
Text: as §1, §2

[5] = system: GLYCINE MAX(L)MERR. CV. WILLIAMS; experiment: Preemergence herbicidal evaluation, GLXMAW (Soybean, Williams); design: key to GLXMAW: visual rating scale 0-9 vs control
Text: as §1, §2

[6] = system: SETARIA VIRIDIS, (L) BEAU; experiment: Preemergence herbicidal evaluation, SETVI (Foxtail, Green); design: key to SETVI: visual rating scale 0-9 vs control
Text: as §1, §2

GALIUM APARINE = experiment: Preemergence herbicidal evaluation, GALAP (Galium); design: key to GALAP: visual rating scale 0-9 vs control
Text: as §1, §2

[7] = system: ABUTILON THEOPHRASTI, MEDIC.; experiment: Preemergence herbicidal evaluation, ABUTH (Velvetleaf); design: key to ABUTH: visual rating scale 0-9 vs control
Text: as §1, §2

CHENOPODIUM ALBUM, L. = experiment: Preemergence herbicidal evaluation, CHEAL (Lambsquarters, Common); design: key to CHEAL: visual rating scale 0-9 vs control
Text: as §1, §2

COC(=O)Cn1c(=O)n(C)c(=O)n(-c2cc(N3C(=O)C4=C(CCCC4)C3=O)c(Cl)cc2Cl)c1=O [Compound 6, Methyl 3-[2,4-dichloro-5-(1-cyclohexene-1,2-dicarboximido)phenyl]tetrahydro-5-methyl-2,4,6-trioxo-s-triazine-1(2H)-acetate]
Herbicide rating (0-9) ORYSAT ([1]; 0.125 kg/ha): 4.0
Herbicide rating (0-9) ORYSAT ([1]; 0.250 kg/ha): 4.0
Herbicide rating (0-9) ORYSAT ([1]; 0.500 kg/ha): 4.0
Herbicide rating (0-9) IPOSS (IPOMOEA SPP.; 0.125 kg/ha): 4.0
Herbicide rating (0-9) IPOSS (IPOMOEA SPP.; 0.250 kg/ha): 4.0
Herbicide rating (0-9) IPOSS (IPOMOEA SPP.; 0.500 kg/ha): 4.0
Herbicide rating (0-9) ECHCG ([2]; 0.125 kg/ha): 0.0
Herbicide rating (0-9) ECHCG ([2]; 0.250 kg/ha): 0.0
Herbicide rating (0-9) ECHCG ([2]; 0.500 kg/ha): 0.0
Herbicide rating (0-9) TRZAWO ([3]; 0.125 kg/ha): 2.0
Herbicide rating (0-9) TRZAWO ([3]; 0.250 kg/ha): 2.0
Herbicide rating (0-9) TRZAWO ([3]; 0.500 kg/ha): 2.0

Cn1c(=O)n(CC(=O)OC(C)(C)C)c(=O)n(-c2cc(N3C(=O)C4=C(CCCC4)C3=O)c(Cl)cc2Cl)c1=O [Compound 7, Tert-butyl 3-[2,4-dichloro-5-(1-cyclohexene-1,2-dicarboximido)phenyl]tetrahydro-5-methyl-2,4,6-trioxo-s-triazine-1(2H)-acetate]
Herbicide rating (0-9) AMBEL ([4]; 0.125 kg/ha): 0.0
Herbicide rating (0-9) AMBEL ([4]; 0.250 kg/ha): 0.0
Herbicide rating (0-9) ZEAMX (ZEA MAYS L.; 0.125 kg/ha): 0.0
Herbicide rating (0-9) ZEAMX (ZEA MAYS L.; 0.250 kg/ha): 0.0
Herbicide rating (0-9) ZEAMX (ZEA MAYS L.; 0.500 kg/ha): 0.0
Herbicide rating (0-9) IPOSS (IPOMOEA SPP.; 0.125 kg/ha): 0.0
Herbicide rating (0-9) IPOSS (IPOMOEA SPP.; 0.250 kg/ha): 0.0
Herbicide rating (0-9) IPOSS (IPOMOEA SPP.; 0.500 kg/ha): 0.0
Herbicide rating (0-9) ECHCG ([2]; 0.125 kg/ha): 0.0
Herbicide rating (0-9) ECHCG ([2]; 0.250 kg/ha): 0.0
Herbicide rating (0-9) ECHCG ([2]; 0.500 kg/ha): 0.0
Herbicide rating (0-9) CASOB (CASSIA OBTUSIFOLIA, L.; 0.125 kg/ha): 0.0
Herbicide rating (0-9) CASOB (CASSIA OBTUSIFOLIA, L.; 0.250 kg/ha): 0.0
Herbicide rating (0-9) CASOB (CASSIA OBTUSIFOLIA, L.; 0.500 kg/ha): 0.0
Herbicide rating (0-9) GLXMAW ([5]; 0.125 kg/ha): 0.0
Herbicide rating (0-9) GLXMAW ([5]; 0.250 kg/ha): 0.0
Herbicide rating (0-9) GLXMAW ([5]; 0.500 kg/ha): 0.0
Herbicide rating (0-9) SETVI ([6]; 0.125 kg/ha): 0.0
Herbicide rating (0-9) SETVI ([6]; 0.250 kg/ha): 0.0
Herbicide rating (0-9) SETVI ([6]; 0.500 kg/ha): 0.0

C=CCn1c(=O)[nH]c(=O)n(-c2cc(N3C(=O)C4=C(CCCC4)C3=O)c(F)cc2Cl)c1=O [Compound 18, N-[5-(3-Allylhexahydro-2,4,6-trioxo-s-triazin-1-yl)-4-chloro-2-fluorophenyl]-1-cyclohexene-1,2-dicarboximide]
GALAP (GALIUM APARINE; Rate 0.125 kg/ha): 0.0
GALAP (GALIUM APARINE; Rate 0.250 kg/ha): 0.0
GALAP (GALIUM APARINE; Rate 0.500 kg/ha): 4.0
ORYSAT ([1]; Rate 0.125 kg/ha): 0.0
ORYSAT ([1]; Rate 0.250 kg/ha): 0.0
ORYSAT ([1]; Rate 0.500 kg/ha): 0.0
AMBEL ([4]; Rate 0.125 kg/ha): 0.0
AMBEL ([4]; Rate 0.250 kg/ha): 0.0
AMBEL ([4]; Rate 0.500 kg/ha): 0.0
ZEAMX (ZEA MAYS L.; Rate 0.125 kg/ha): 0.0
ZEAMX (ZEA MAYS L.; Rate 0.250 kg/ha): 0.0
ZEAMX (ZEA MAYS L.; Rate 0.500 kg/ha): 0.0
ABUTH ([7]; Rate 0.125 kg/ha): 0.0
ABUTH ([7]; Rate 0.250 kg/ha): 0.0
ABUTH ([7]; Rate 0.500 kg/ha): 0.0
IPOSS (IPOMOEA SPP.; Rate 0.125 kg/ha): 0.0
IPOSS (IPOMOEA SPP.; Rate 0.250 kg/ha): 0.0
IPOSS (IPOMOEA SPP.; Rate 0.500 kg/ha): 4.0
ECHCG ([2]; Rate 0.125 kg/ha): 0.0
ECHCG ([2]; Rate 0.250 kg/ha): 0.0
ECHCG ([2]; Rate 0.500 kg/ha): 0.0
CASOB (CASSIA OBTUSIFOLIA, L.; Rate 0.125 kg/ha): 0.0
CASOB (CASSIA OBTUSIFOLIA, L.; Rate 0.250 kg/ha): 0.0
CASOB (CASSIA OBTUSIFOLIA, L.; Rate 0.500 kg/ha): 0.0
GLXMAW ([5]; Rate 0.125 kg/ha): 0.0
GLXMAW ([5]; Rate 0.250 kg/ha): 0.0
GLXMAW ([5]; Rate 0.500 kg/ha): 0.0
CHEAL (CHENOPODIUM ALBUM, L.; Rate 0.125 kg/ha): 0.0
CHEAL (CHENOPODIUM ALBUM, L.; Rate 0.250 kg/ha): 5.0
CHEAL (CHENOPODIUM ALBUM, L.; Rate 0.500 kg/ha): 7.0
TRZAWO ([3]; Rate 0.125 kg/ha): 0.0
TRZAWO ([3]; Rate 0.250 kg/ha): 0.0
TRZAWO ([3]; Rate 0.500 kg/ha): 0.0
SETVI ([6]; Rate 0.125 kg/ha): 0.0
SETVI ([6]; Rate 0.250 kg/ha): 0.0
SETVI ([6]; Rate 0.500 kg/ha): 0.0
